Where “and” joins values, the source holds several entries; their conditions need not be identical. Equal entries are not always repeated.
Tests used:
LNCaP cells [1] = test: Flow cytometry (propidium iodide): cell cycle distribution and apoptosis in cultured LNCaP cells; assay type: cell-based, human; conditions: for apoptotic cells (percent of pre-G0/G1 cells): single drug, TPA 0.16 or 0.32 nM
Method: LNCaP cells were obtained from the American Type Culture Collection (Rockville, Md., USA). TPA was obtained from Alexis Co. (San Diego, Calif.). […] LNCaP cells were maintained in RPMI-1640 culture medium containing 10% fetal bovine serum that was supplemented with penicillin (100 units/ml), streptomycin (100 μg/ml) and L-glutamine (300 μg/ml) as described (Zheng, X. et al. 2000. Oncol. Res. 12:419=427). Cultured cells were grown at 37° C. in a humidified atmosphere of 5% CO2 and were passed twice a week. In all experiments, LNCaP cells were initially seeded at a density of 1×10^5 cells/ml in a final volume of 2 or 5 ml in 35 or 60 mm tissue culture dishes, respectively.
To perform the analysis, 1×10^6 cells were washed with phosphate-buffered saline (PBS) and resuspended in 500 μl of stain solution (20 mg/ml polyethylene glycol 8000, 50 μg/ml propidium iodide, 0.1% Triton-X-100, and 0.4 M sodium chloride). The mixture was incubated at 4° C. overnight in the dark before being analyzed on a Coulter Epics-Profile II flow cytometer. Propidium iodide is a fluorescent dye that intercalates into the DNA double helix. Whether cells are in the G1 phase where they have two copies of their genome or in the G2/M phase where they have 4 copies of their genome, or in the S phase where their DNA is between the two states, can be determined by the amount of propidium iodide that intercalates into the DNA. Pre G0/G1 cells were considered apoptotic cells. The proportion of cells in each phase of the cell cycle was calculated using the cytologic software provided.

LNCaP tumors [2] = test: Second in vivo study: TPA, ATRA or both i.p. in NCr mice with LNCaP tumors, 21 or 46 days; conditions: for % of Mice with Tumor Growth / % of Mice with Tumor Regression: i.p.; for percent of initial tumor size: TPA 0.16 nmol/g
Method: Tumor cell growth was measured and expressed as percent of initial size (FIG. 3). […] In this table, mice in Group A (13 mice/group) were treated for 21 days, while mice in Group B (6 mice/group) were a subset of the original group and were treated for an additional 25 days.
The effect of the 21 day treatments on body weight was examined in order to determine if there was the same level of toxicity seen in the first animal study.
The results from the Group B animals were analyzed separately.
Male Ncr immunodeficient mice (6 to 7 weeks old) were obtained from Taco Farms (Germantown, N.Y.). The animals were housed in sterile filter-capped microisolator cages and provided with sterilized food and water. Prostate cancer cells (2×10^6 cells/0.1 ml/mouse) suspended in 50% matrigel (Collaborative Research, Bedford, Mass.) in RPMI 1640 medium were injected subcutaneously into the right flank of the mice. After 4 to 6 weeks, mice with well-established tumors (0.65 to 1 cm by 0.65 to 1 cm) were used for the various experiments. In all experiments, animals received the same volume of injections (5 μl/g body weight). Tumor size and body weight were measured daily. At the end of a study, mice were sacrificed by decapitation, tumors were excised, weighed, and placed in phosphate-buffered formalin for 48 hr at room temperature and then placed in ethanol for 48 hr before preparing paraffin sections.

LNCaP cells [3] = test: Number of viable LNCaP cells (trypan blue exclusion); assay type: cell-based, human; conditions: for effect on LNCaP cell growth (FIG. 2): TPA alone 0.32 nM, ATRA alone 0.5 to 10 μM, or 0.32 nM TPA with increasing ATRA
Method: LNCaP cells were seeded in culture dishes and incubated for 24 hours to allow the cells to attach to the culture dishes. The cells were then treated with ethanol (2 μl/ml) or TPA in ethanol (0.2 to 10 ng/ml) for 96 hours.
The number of viable and dead cells was determined by trypan blue exclusion. […] The concentration of TPA that caused a 50% inhibition of LNCaP cell growth was 3 nM (IC50). The IC50 for TPA varied between 1 and 3 nM in different experiments.
LNCaP cells were obtained from the American Type Culture Collection (Rockville, Md., USA). TPA was obtained from Alexis Co. (San Diego, Calif.). ATRA was obtained from Sigma Chemical Co. (St. Louis, Mo.). LNCaP cells were maintained in RPMI-1640 culture medium containing 10% fetal bovine serum that was supplemented with penicillin (100 units/ml), streptomycin (100 μg/ml) and L-glutamine (300 μg/ml) as described (Zheng, X. et al. 2000. Oncol. Res. 12:419=427). Cultured cells were grown at 37° C. in a humidified atmosphere of 5% CO2 and were passed twice a week. In all experiments, LNCaP cells were initially seeded at a density of 1×10^5 cells/ml in a final volume of 2 or 5 ml in 35 or 60 mm tissue culture dishes, respectively.
To quantify the number of viable cells after each treatment, cells were counted using a hemacytometer under a light microscope. Cell viability was determined by the trypan blue exclusion assay, which was done by mixing 80 μl of cell suspension and 20 μl of 0.4% trypan blue solution for 2 minutes.

LNCaP tumors [4] = test: Mitotic cells and caspase 3 (active form) immunostaining in LNCaP tumors from treated mice; assay type: in vivo, male NCr mice; conditions: mice treated for 46 days
Method: (§1) Tumor size and body weight were measured daily.
Tumor sections used were stained by the horseradish peroxidase-conjugated-avidin method. Endogenous peroxidase was blocked by incubating the tissue sections in 3% hydrogen peroxide in methanol for 30 minutes at room temperature. Sections were then treated with 0.01 M sodium citrate buffer (pH 6.0) in a microwave oven at high temperature for 10 minutes. The sections were incubated with a protein block (normal goat serum) for 10 minutes, followed by avidin D for 15 minutes and biotin blocking solution for 15 minutes at room temperature. The sections were incubated with caspase 3 primary antibody (1:2000 dilution) for 30 minutes at room temperature followed by incubation with a biotinylated anti-rabbit secondary antibody for 30 minutes and incubation with conjugated-avidin solution for 30 minutes. Color development was achieved by incubation with 0.02% 3,3′-diaminobenzidine tetrahydrochloride containing 0.02% hydrogen peroxide for 10 minutes at room temperature. The slides were then counterstained with hematoxylin, dehydrated and coverslips were added for permanent mounting. A positive reaction was shown as a light brown to dark brown precipitate in the cytoplasm and/or perinuclei of the cells.

LNCaP tumors [5] = test: First in vivo study: TPA i.p. in NCr mice with LNCaP tumors, 13 days; set-up: species or system male NCr mice
Method: With the feasibility of the use of TPA by i.p. injection now established, male NCr mice were injected subcutaneously with LNCaP cells in matragel. […] On day 3, the dose of TPA was increased (0.32 nmol/g; 5 μl vehicle/g body weight) and this dose level was administered i.p. for 11 days. The length and width of each tumor was measured at the start of the study and during treatment with TPA. Tumor size was expressed as cm^2 (length×width). There was a statistically significant inhibition of tumor cell growth in the TPA treated animals. The average tumor size in the vehicle-treated control group increased to about 200% of the initial tumor size while the average tumor size after 13 days of treatment with TPA was about 95% of the initial tumor size.
as §1

[6] = doses of TPA in the range of 0.25 to 1 mg; cited from earlier work
[7] = Blood levels of TPA after i.p. injection in NCr mice (HL-60 differentiation bioassay); assay type: in vivo, male NCr mice
Method: Immunodeficient male NCr mice were used as they are a well-established mouse model for examination of human tumor cell growth. […] TPA was administered in a vehicle that consisted of propylene glycol, polysorbate 80, benzyl alcohol, ethanol, and water (40:0.5:1:10:48.5). Peak blood levels of TPA were in the range of 3 ng/ml (4.8 nM) after a 200 ng/g injection and 1 ng/ml (1.7 nM) after a 100 ng/g injection.
The concentration of TPA in blood after an i.p. injection of TPA was measured by a bioassay that quantifies ethyl acetate-extractable differentiating activity in blood (Cui, X. X. et al. 2002. Oncol. Res. 13:169-174). Differentiating activity was measured in HL-60 cells. […] Although blood levels of bioactive material are expressed as ng of TPA/ml blood, the assay could include biologically active metabolites.

[8] = TPA 0.32 nM, ATRA 1 μM, 96 hours
[9] = entire 46 day treatment interval (Group B), ATRA 0.5 nmol/g
[10] = Treatment for 48 Hours, TPA 1 ng/ml, Taxol 5 ng/ml
[11] = Treatment for 96 Hours, TPA 1 ng/ml, Taxol 5 ng/ml

Row | SMILES | % Apoptotic Cells (LNCaP cells [1]; [8]) [%] | % Cells in G0/G1 (LNCaP cells [1]; [8]) [%] | % Cells in G2/M (LNCaP cells [1]; [8]) [%] | % Cells in S (LNCaP cells [1]; [8]) [%] | apoptotic cells (percent of pre-G0/G1 cells) (LNCaP cells [1]; 96 hours, ATRA 1 μM) | % of Mice with Tumor Growth (LNCaP tumors [2]; Group A, 21 days) [%] | % of Mice with Tumor Regression (LNCaP tumors [2]; Group A, 21 days) [%] | % of Mice with Tumor Growth (LNCaP tumors [2]; Group B, 46 days) [%] | % of Mice with Tumor Regression (LNCaP tumors [2]; Group B, 46 days) [%] | percent of initial tumor size (LNCaP tumors [2]; [9]) [%] | # Visible Cells (1 × 10^5) (LNCaP cells [3]; [8]) | effect on LNCaP cell growth (FIG. 2) (LNCaP cells [3]) | % Caspase 3 Positive Cells (LNCaP tumors [4]) [%] | % Mitotic Cells (LNCaP tumors [4]) [%] | % Apoptotic Cells (LNCaP cells [1]; [10]) [%] | % Cells in G0/G1 (LNCaP cells [1]; [10]) [%] | % Cells in G2/M (LNCaP cells [1]; [10]) [%] | % Cells in S (LNCaP cells [1]; [10]) [%] | % Apoptotic Cells (LNCaP cells [1]; [11]) [%] | % Cells in G0/G1 (LNCaP cells [1]; [11]) [%] | other results
1 | CC1=C(/C=C/C(C)=C/C=C/C(C)=C/C(=O)O)C(C)(C)CCC1 [ATRA, all-trans-retinoic acid] | 3.5 | 73.3 | 8.2 | 14.8 | same low level of apoptotic cells | 69 | 31 | 83 | 17 | 159.2±27.0 | 11.1 1 × 10^5 | little effect on LNCaP cell growth | 0.35 ± 0.03 | 0.54 ± 0.04 | – | – | – | – | – | – | rate of tumor growth at later time intervals (FIG. 5) (LNCaP tumors [2]; Group B, 46 days, ATRA 0.5 nmol/g): about the same rate as tumors in the vehicle control group
2 | CCCCCCCCCCCCCC(=O)O[C@@H]1[C@@H](C)[C@@]2(O)[C@@H](C=C(CO)C[C@]3(O)C(=O)C(C)=C[C@@H]23)[C@@H]2C(C)(C)[C@]12OC(C)=O [TPA, 12-O-tetradecanoylphorbol-13-acetate] | 5.4 | 69.7 | 8.7 | 15.9 | same low level of apoptotic cells | 38 | 62 | 33 | 67 | 106.1±21.0 | 6.9 1 × 10^5 | slight inhibitory effect on cell growth | 0.45 ± 0.03 | 0.50 ± 0.05 | 10.1 | 77.8 | 5.5 | 13.0 | 11.2 | 66.7 | toxicity (LNCaP tumors [5]; 13 days, TPA 0.16 then 0.32 nmol/g i.p. once a day): excessive toxicity (decreased body weight and one death on day 14 of the study); average tumor size, % of the initial tumor size (LNCaP tumors [5]; after 13 days, TPA 0.16 nmol/g for 2 days then 0.32 nmol/g for 11 days, i.p.): about 95%; % Cells in G2/M (LNCaP cells [1]; [11]): 9.5%; % Cells in S (LNCaP cells [1]; [11]): 12.3%; percent of initial tumor size (LNCaP tumors [2]; 21 days, once a day i.p., ATRA 0.5 nmol/g): 96.4±3.1%; effect on body weight (LNCaP tumors [2]; treated for 46 days): significant decreases in body weight; apoptotic cell morphology (LNCaP cells [3]; 3.2 nM TPA): morphologically distinct apoptotic cells; # Visible Cells (1 × 10^5) (LNCaP cells [3]; [10]): 3.7 1 × 10^5; # Visible Cells (1 × 10^5) (LNCaP cells [3]; [11]): 3.2 1 × 10^5; Ratio of Mitotic Cells/Caspase 3 Cells (LNCaP tumors [4]): 1.13 ± 0.11; toxicity in humans [6]: only vein irritation and transient fever, and an occasional incidence of transient dyspnea; peak blood level of TPA ([7]; after a 100 ng/g i.p. injection): ~1 ng/ml and ~1.7 nM; peak blood level of TPA ([7]; after a 200 ng/g i.p. injection): about 3 ng/ml and ~4.8 nM; time of peak blood levels ([7]; i.p. 100 or 200 ng TPA per gram of body weight): 30 to 60 min; TPA in blood at 8, 12 or 24 hours ([7]; i.p. injection of 100 ng/g TPA): No TPA was detectable; TPA in blood at 8 and 24 hours ([7]; i.p. injection of 200 ng/g TPA): Measurable blood levels of TPA; half-life of TPA ([7]; i.p., NCr mice): 3 to 6 h
3 | CC(=O)O[C@H]1C(=O)[C@@]2(C)[C@H]([C@H](OC(=O)c3ccccc3)[C@]3(O)C[C@H](OC(=O)[C@H](O)[C@@H](NC(=O)c4ccccc4)c4ccccc4)C(C)=C1C3(C)C)[C@]1(OC(C)=O)CO[C@@H]1C[C@@H]2O [Taxol, paclitaxol] | – | – | – | – | – | – | – | – | – | – | – | – | – | – | 12.9 | 73.0 | 6.4 | 12.8 | 28.4 | 49.7 | % Cells in G2/M (LNCaP cells [1]; [11]): 8.7%; % Cells in S (LNCaP cells [1]; [11]): 12.4%; # Visible Cells (1 × 10^5) (LNCaP cells [3]; [10]): 4.6 1 × 10^5; # Visible Cells (1 × 10^5) (LNCaP cells [3]; [11]): 2.5 1 × 10^5

From US20040106673A1, “Compositions and methods for inhibiting proliferation in human prostate cancer cells” (priority 2002, published 2004)
